Read-outs that look alike come from different tables or passages of the source.
Key:
CDK1/Cyclin B = target: T1, CDK1/Cyclin B (Homo sapiens, UniProt P06493); test: Enzymatic assay for CDK1 (FRET based LANCE Ultra kinase assay); format: biochemical
T1 construct: purchased Invitrogen PR4768C
Outline: (§1)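 TR-FRET (LANCE Ultra) kinase assay at ATP Km, ULight-MBP peptide substrate (68 nM), 8-dose 4-fold compound series in DMSO. Enzymes: […]; 60 min at 23° C., stopped with EDTA plus Eu-anti-phospho-MBP antibody, read 665/615 nm after 60 min.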

CDK2/Cyclin A = target: T2, CDK2/Cyclin A (Homo sapiens, UniProt P24941); test: Enzymatic assay for CDK2 (FRET based LANCE Ultra kinase assay); format: biochemical
T2 construct: purchased Invitrogen PV6290
Outline: as §1

CDK5/p25 = target: T3, CDK5/p25 (Homo sapiens, UniProt Q00535); test: Enzymatic assay for CDK5 (FRET based LANCE Ultra kinase assay); format: biochemical
T3 construct: purchased Invitrogen PR8543B
Outline: as §1

CDK7/Cyclin H/MNAT1 = target: T4, CDK7/Cyclin H/MNAT1 (Homo sapiens, UniProt P50613); test: Enzymatic assay for CDK7 (FRET based LANCE Ultra kinase assay); format: biochemical
T4 construct: purchased Invitrogen PR6749B
Outline: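 Inhibition was measured at Km ATP by time-resolved FRET between a Eu anti-phospho antibody and a phosphorylated ULight peptide. The enzyme was the purified CDK7/cyclin complex, and data were curve-fitted.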

HCT116 = test: Cellular HCT116 viability assay (CellTiter-Glo, 72 hours); format: cell-based; conditions: Homo sapiens, HCT-116
Description: (§2) All cell lines were routinely tested for mycoplasma.
(§3) The effect of the CDK7 inhibitor to inhibit the growth of target cancer cells was evaluated through the 72 hours time period of viability assay. Briefly, the candidate cell line ware plated in 96 well plate at the following density of cells respectively. […] DMSO solvent without compound served as a control and final DMSO concentration less than 0.1%. After 72 hours of incubation at 37° C., 5% CO2 incubator, cells were analyzed for the viability using the CellTiter-Glo Luminescent Cell Viability Assay (Promega, Cat #G7570). All viability assays were performed in duplicate and Luminescence was read using an Envision (Perkin Elmer, USA). Data was analyzed using XLfit software.

H460 = test: Cellular H460 viability assay (CellTiter-Glo, 72 hours); format: cell-based; conditions: Homo sapiens, NCI-H460
Outline: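 Mycoplasma-tested cells, seeded at densities chosen for each line, received compound or DMSO vehicle (under 0.1% final) for 72 hours. Duplicate cultures were then read for viability by CellTiter-Glo luminescence.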

MV4-11 = test: Cellular MV4-11 viability assay (CellTiter-Glo, 72 hours); format: cell-based; conditions: Homo sapiens
Description: as §2, §3

[1] = read-out: CDK1 enzymatic activity (IC50 range)
[2] = read-out: CDK2 enzymatic activity (IC50 range)
[3] = read-out: CDK5 enzymatic activity (IC50 range)
[4] = read-out: CDK7 enzymatic activity (IC50 range)

T1 sequence (P06493 whole entry): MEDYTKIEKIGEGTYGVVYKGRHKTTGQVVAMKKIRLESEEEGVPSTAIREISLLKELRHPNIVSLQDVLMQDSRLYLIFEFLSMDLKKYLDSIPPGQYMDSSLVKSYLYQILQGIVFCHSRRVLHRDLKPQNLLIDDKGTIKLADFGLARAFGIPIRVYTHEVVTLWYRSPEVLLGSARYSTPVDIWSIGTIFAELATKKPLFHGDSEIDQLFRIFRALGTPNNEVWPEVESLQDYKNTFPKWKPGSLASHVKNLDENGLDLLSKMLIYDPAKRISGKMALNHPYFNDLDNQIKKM
T1 sequence (P14635 whole entry partner): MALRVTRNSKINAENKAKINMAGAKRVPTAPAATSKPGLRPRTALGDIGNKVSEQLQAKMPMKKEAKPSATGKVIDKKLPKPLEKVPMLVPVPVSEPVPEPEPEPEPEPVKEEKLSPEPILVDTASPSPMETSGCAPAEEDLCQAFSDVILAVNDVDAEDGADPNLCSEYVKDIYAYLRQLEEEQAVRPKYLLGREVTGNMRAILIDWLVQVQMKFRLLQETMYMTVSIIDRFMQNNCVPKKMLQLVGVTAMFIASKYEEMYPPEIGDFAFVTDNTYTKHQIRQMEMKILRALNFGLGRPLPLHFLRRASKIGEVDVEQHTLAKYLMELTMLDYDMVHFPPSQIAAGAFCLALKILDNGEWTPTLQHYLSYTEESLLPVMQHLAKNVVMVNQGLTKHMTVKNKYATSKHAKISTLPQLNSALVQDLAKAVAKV
T3 sequence (Q00535 whole entry): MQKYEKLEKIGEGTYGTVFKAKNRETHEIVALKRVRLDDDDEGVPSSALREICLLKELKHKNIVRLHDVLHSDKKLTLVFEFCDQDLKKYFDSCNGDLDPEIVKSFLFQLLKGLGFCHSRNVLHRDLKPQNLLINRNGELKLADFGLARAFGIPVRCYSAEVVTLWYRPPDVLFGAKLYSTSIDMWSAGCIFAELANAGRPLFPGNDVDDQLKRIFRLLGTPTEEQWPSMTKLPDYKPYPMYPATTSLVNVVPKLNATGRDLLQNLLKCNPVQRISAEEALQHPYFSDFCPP
T3 sequence (Q15078 99-307 partner limits assumed): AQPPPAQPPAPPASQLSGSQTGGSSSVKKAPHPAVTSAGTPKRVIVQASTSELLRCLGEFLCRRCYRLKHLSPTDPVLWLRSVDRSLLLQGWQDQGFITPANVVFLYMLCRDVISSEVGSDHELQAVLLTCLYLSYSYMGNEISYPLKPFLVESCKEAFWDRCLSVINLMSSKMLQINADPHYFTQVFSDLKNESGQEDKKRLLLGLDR
T4 sequence (P50613 whole entry): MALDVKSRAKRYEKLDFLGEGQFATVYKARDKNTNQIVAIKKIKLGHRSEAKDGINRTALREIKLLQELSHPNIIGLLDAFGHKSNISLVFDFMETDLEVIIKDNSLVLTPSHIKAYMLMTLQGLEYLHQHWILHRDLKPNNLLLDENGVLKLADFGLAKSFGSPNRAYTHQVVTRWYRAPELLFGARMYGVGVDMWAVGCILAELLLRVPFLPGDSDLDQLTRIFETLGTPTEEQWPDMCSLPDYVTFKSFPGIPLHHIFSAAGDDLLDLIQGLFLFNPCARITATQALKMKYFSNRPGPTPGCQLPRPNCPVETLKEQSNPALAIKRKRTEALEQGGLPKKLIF
T4 sequence (P51946 whole entry partner): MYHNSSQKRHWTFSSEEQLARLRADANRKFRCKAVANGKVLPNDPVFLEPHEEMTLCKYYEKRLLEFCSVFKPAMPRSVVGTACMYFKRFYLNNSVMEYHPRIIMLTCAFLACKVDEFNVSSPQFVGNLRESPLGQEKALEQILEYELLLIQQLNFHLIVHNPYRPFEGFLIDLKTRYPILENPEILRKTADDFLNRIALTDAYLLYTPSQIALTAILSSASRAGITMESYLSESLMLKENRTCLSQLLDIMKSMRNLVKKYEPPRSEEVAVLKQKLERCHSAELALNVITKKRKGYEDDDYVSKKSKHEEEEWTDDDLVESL
T4 sequence (P51948 whole entry partner): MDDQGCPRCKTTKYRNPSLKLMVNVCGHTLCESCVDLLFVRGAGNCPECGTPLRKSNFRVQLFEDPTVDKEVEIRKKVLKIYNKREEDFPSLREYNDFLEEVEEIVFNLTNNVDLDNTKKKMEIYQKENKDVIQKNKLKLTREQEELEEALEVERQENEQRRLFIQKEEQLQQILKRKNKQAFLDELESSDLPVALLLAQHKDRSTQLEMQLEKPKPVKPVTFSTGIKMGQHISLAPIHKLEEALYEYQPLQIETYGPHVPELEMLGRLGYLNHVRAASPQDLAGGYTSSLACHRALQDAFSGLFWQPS

| SMILES | IC50 (CDK1/Cyclin B; [1]) [µM] | IC50 (CDK2/Cyclin A; [2]) [µM] | IC50 (CDK5/p25; [3]) [µM] | CDK1/CDK7: Selectivity of CDK7 inhibition over CDK1 inhibition (CDK7/Cyclin H/MNAT1; CDK7 over CDK1) | CDK2/CDK7: Selectivity of CDK7 inhibition over CDK2 inhibition (CDK7/Cyclin H/MNAT1; CDK7 over CDK2) | CDK5/CDK7: Selectivity of CDK7 inhibition over CDK5 inhibition (CDK7/Cyclin H/MNAT1; CDK7 over CDK5) | IC50 (CDK7/Cyclin H/MNAT1; [4]) [µM] | IC50 (HCT116) [µM] | IC50 (H460) [µM] | IC50 (MV4-11) [µM] | IC50 (CDK1/Cyclin B; read-out: CDK1 enzymatic activity (IC50 activity range)) [µM] | IC50 (CDK2/Cyclin A; read-out: CDK2 enzymatic activity (IC50 activity range)) [µM] | IC50 (CDK5/p25; read-out: CDK5 enzymatic activity (IC50 activity range)) [µM] | CDK1/CDK7: Selectivity of CDK7 inhibition over CDK1 inhibition (CDK7/Cyclin H/MNAT1; CDK1/CDK7) | CDK2/CDK7: Selectivity of CDK7 inhibition over CDK2 inhibition (CDK7/Cyclin H/MNAT1; CDK2/CDK7) | CDK5/CDK7: Selectivity of CDK7 inhibition over CDK5 inhibition (CDK7/Cyclin H/MNAT1; CDK5/CDK7) | IC50 (CDK7/Cyclin H/MNAT1; read-out: CDK7 enzymatic activity (IC50 activity range)) [µM] |
| --- | --- | --- | --- | --- | --- | --- | --- | --- | --- | --- | --- | --- | --- | --- | --- | --- | --- |
| CC(C)c1cnn2c(NCc3c(Cl)cccc3-n3ccc(C(=O)N4CCOCC4)n3)nc(N3CCC(N)CC3)nc12 [Compound 200] | > 1 | > 1 | > 1 | A (A=greater than 200 fold) | A (A=greater than 200 fold) | A (A=greater than 200 fold) | < 0.1 | < 1 | < 1 | < 1 | – | – | – | – | – | – | – |
| CC[C@@H](N)COc1nc(NCc2ccccc2-c2ccc3ccccc3n2)n2ncc(C(C)C)c2n1 [Compound 237] | > 1 | > 1 | > 1 | A (A=greater than 200 fold) | A (A=greater than 200 fold) | A (A=greater than 200 fold) | < 0.1 | 1 to 10 | 1 to 10 | 1 to 10 | – | – | – | – | – | – | – |
| CC(C)c1cnn2c(NCc3ccccc3-n3cc4cc(C(=O)NC5CC5)ccc4n3)nc(N3CCC(N)CC3)nc12 [Compound 161] | 0.1 to 1 | 0.1 to 1 | 0.1 to 1 | A (A=greater than 200 fold) | B (B=less than 200 fold, but greater than 20 fold) | B (B=less than 200 fold, but greater than 20 fold) | < 0.1 | < 1 | < 1 | < 1 | – | – | – | – | – | – | – |
| CC(C)c1cnn2c(NCc3ccccc3-c3ccc4ccccc4n3)nc(N3CCC(CN)CC3)nc12 [Compound 216] | > 1 | > 1 | > 1 | A (A=greater than 200 fold) | A (A=greater than 200 fold) | A (A=greater than 200 fold) | < 0.1 | < 1 | < 1 | < 1 | – | – | – | – | – | – | – |
| CC(C)c1cnn2c(NCc3ccccc3-n3ccc(C(C)(C)O)n3)nc(N3CCC(N)CC3)nc12 [Compound 236] | 0.1 to 1 | 0.1 to 1 | 0.1 to 1 | A (A=greater than 200 fold) | B (B=less than 200 fold, but greater than 20 fold) | B (B=less than 200 fold, but greater than 20 fold) | < 0.1 | < 1 | < 1 | < 1 | – | – | – | – | – | – | – |
| CC(C)c1cnn2c(NCc3ccccc3-c3ccc4ccccc4n3)nc(NCC3CCNCC3)nc12 [Compound 209] | > 1 | > 1 | > 1 | A (A=greater than 200 fold) | A (A=greater than 200 fold) | A (A=greater than 200 fold) | < 0.1 | < 1 | < 1 | < 1 | – | – | – | – | – | – | – |
| CC(C)c1cnn2c(NCc3c(Cl)cccc3Cl)nc(N3CCC(N)CC3)nc12 [Compound 257] | – | – | – | – | – | – | – | < 1 | < 1 | < 1 | > 1 | 0.1 to 1 | 0.1 to 1 | A (A=greater than 200 fold) | B (B=less than 200 fold, but greater than 20 fold) | B (B=less than 200 fold, but greater than 20 fold) | < 0.1 |
| CC(C)c1cnn2c(NC(C)c3ccccc3-n3ccc(CO)n3)nc(N3CCC(N)CC3)nc12 (racemic) [Compound 220] | > 1 | > 1 | > 1 | A (A=greater than 200 fold) | A (A=greater than 200 fold) | A (A=greater than 200 fold) | < 0.1 | < 1 | < 1 | < 1 | – | – | – | – | – | – | – |
| CC(C)c1cnn2c(NCc3ccccc3-n3ccc(C(C)(C)O)n3)nc(N3CCC(O)(CN)CC3)nc12 [Compound 228] | > 1 | > 1 | 0.1 to 1 | A (A=greater than 200 fold) | A (A=greater than 200 fold) | A (A=greater than 200 fold) | < 0.1 | < 1 | < 1 | < 1 | – | – | – | – | – | – | – |
| CNC(=O)c1cccc(-c2cnn(-c3ccccc3CNc3nc(N4CCC(N)CC4)nc4c(C(C)C)cnn34)c2)c1 [Compound 151] | 0.1 to 1 | 0.1 to 1 | 0.1 to 1 | A (A=greater than 200 fold) | B (B=less than 200 fold, but greater than 20 fold) | B (B=less than 200 fold, but greater than 20 fold) | < 0.1 | < 1 | < 1 | < 1 | – | – | – | – | – | – | – |
| CC(C)c1cnn2c(NCc3c(Cl)cccc3C(C)(C)O)nc(N3CCC(N)CC3)nc12 [Compound 239] | > 1 | > 1 | > 1 | A (A=greater than 200 fold) | A (A=greater than 200 fold) | A (A=greater than 200 fold) | < 0.1 | 1 to 10 | 1 to 10 | 1 to 10 | – | – | – | – | – | – | – |
| CNC(=O)c1cc2cn(-c3ccccc3CNc3nc(N4CCC(N)CC4)nc4c(C(C)C)cnn34)nc2cc1F [Compound 157] | > 1 | 0.1 to 1 | 0.1 to 1 | A (A=greater than 200 fold) | A (A=greater than 200 fold) | B (B=less than 200 fold, but greater than 20 fold) | < 0.1 | < 1 | < 1 | < 1 | – | – | – | – | – | – | – |

Reference: patent US11945822B2, “Pyrazolo-triazine and/or pyrazolo-pxrimidine derivatives as selective inhibitor of cyclin dependent kinase” (QURIENT CO., LTD., priority 2018, dated 2024)
